Data set [1] has as its system human smooth muscle cells. The experiment in a line: Matrix vesicle release by VSMCs (western blot of CD63 and Fetuin A in MV lysates, CD63 densitometry). The format is cell-based. To be noted: matrix vesicle markers CD63 and Fetuin A in MV lysates, n=3. As for the experimental part: Panel B, quantification of matrix vesicle release by VSMCs was performed using densitometry analysis of CD63, presented in MV as defined by western-blot analysis (shown in A). Mean±SD, n=3.

The test system of data set [2] is human smooth muscle cells. The format is cell-based. As for the experimental part:
A—VSMCs were incubated in the absence or presence of high Ca/P (2.5 mM Ca and 2.5 mM P) in 2% FBS/M199 media for 5 days and subjected to alizarin D staining Quantification shown graphically in B. Mean±SD, n=3. C—pictures of VSMCs were taken using light microscopy of alizarin-D stained VSMCs. 1.5—BSA control; 2.6−+5 mM GW4869; 3.7−+1.3% DSMO; 4.8−+1 uM Y-27632.

On to `Cl.Cl.O=C(/C=C/c1ccc(/C=C/C(=O)Nc2ccc(C3=NCCN3)cc2)cc1)Nc1ccc(C2=NCCN2)cc1` [GW4869], for which the “matrix vesicles release by human smooth muscle cells” value in data set [1] is listed as “inhibition of matrix vesicles release”. In addition, the “apoptosis of GW4869-treated VSMCs with high Ca and P compared with without” value in the data set on VSMCs is given as “not increased”. Besides, the “number of VSMCs in wells” value in data set [2] is “dramatic reduction in the number of VSMCs”.
On to `C[C@@H](N)[C@H]1CC[C@H](C(=O)Nc2ccncc2)CC1` [Y 27632], for which the “calcification of VSMCs” value in data set [2] (high Ca/P (2.5 mM Ca and 2.5 mM P), media with 2% serum, 5 days, 5 mM GW4869, 1 uM Y-27632) is recorded as “had no effect”.
